According to ChEMBL document CHEMBL1143799, “Synthesis and primary cytotoxicity evaluation of new imidazo[2,1-b]thiazole derivatives” (2007):

Key:
Type in all cases: functional
CCRF-CEM = test: Growth inhibition of human CCRF-CEM cells after 48 hrs by SRB protein assay
MOLT-4 = test: Growth inhibition of human MOLT4 cells after 48 hrs by SRB protein assay; settings: MOLT-4, 48 h
RPMI-8226 = test: Growth inhibition of human RPMI8226 cells after 48 hrs by SRB protein assay; settings: RPMI-8226, 48 h
A549 = test: Growth inhibition of human A549 cells after 48 hrs by SRB protein assay; settings: A549, 48 h
EKVX = test: Growth inhibition of human EKVX cells after 48 hrs by SRB protein assay
HOP-92 = test: Growth inhibition of human HOP92 cells after 48 hrs by SRB protein assay; settings: HOP-92, 48 h
NCI-H23 = test: Growth inhibition of human NCI-H23 cells after 48 hrs by SRB protein assay; settings: NCI-H23, 48 h
NCI-H322M = test: Growth inhibition of human NCI-H322M cells after 48 hrs by SRB protein assay
NCI-H460 = test: Growth inhibition of human NCI-H460 cells after 48 hrs by SRB protein assay; settings: NCI-H460, 48 h
NCI-H522 = test: Growth inhibition of human NCI-H522 cells after 48 hrs by SRB protein assay; settings: NCI-H522, 48 h
COLO 205 = test: Growth inhibition of human COLO205 cells after 48 hrs by SRB protein assay; settings: COLO 205, 48 h
HCC 2998 = test: Growth inhibition of human HCC2998 cells after 48 hrs by SRB protein assay; settings: HCC 2998, 48 h
KM12 = test: Growth inhibition of human KM12 cells after 48 hrs by SRB protein assay; settings: KM12, 48 h
SF-295 = test: Growth inhibition of human SF295 cells after 48 hrs by SRB protein assay; settings: SF-295, 48 h
SF-539 = test: Growth inhibition of human SF539 cells after 48 hrs by SRB protein assay; settings: SF-539, 48 h
SNB-19 = test: Growth inhibition of human SNB19 cells after 48 hrs by SRB protein assay; settings: SNB-19, 48 h
SNB-75 = test: Growth inhibition of human SNB75 cells after 48 hrs by SRB protein assay; settings: SNB-75, 48 h
U-251 = test: Growth inhibition human U251 of cells after 48 hrs by SRB protein assay; settings: U-251, 48 h
M14 = test: Growth inhibition of human M14 cells after 48 hrs by SRB protein assay; settings: M14, 48 h
SK-MEL-28 = test: Growth inhibition of human SK-MEL-28 cells after 48 hrs by SRB protein assay; settings: SK-MEL-28, 48 h
UACC-257 = test: Growth inhibition of human UACC257 cells after 48 hrs by SRB protein assay; settings: UACC-257, 48 h
UACC-62 = test: Growth inhibition of human UACC62 cells after 48 hrs by SRB protein assay; settings: UACC-62, 48 h
IGROV-1 = test: Growth inhibition of human IGROV1 cells after 48 hrs by SRB protein assay; settings: IGROV-1, 48 h
OVCAR-8 = test: Growth inhibition of human OVCAR8 cells after 48 hrs by SRB protein assay; settings: OVCAR-8, 48 h
SK-OV-3 = test: Growth inhibition of human SK-OV-3 cells after 48 hrs by SRB protein assay; settings: SK-OV-3, 48 h
[1] = Growth inhibition of human 786O cells after 48 hrs by SRB protein assay; settings: 786-0, 48 h
ACHN = test: Growth inhibition of human ACHN cells after 48 hrs by SRB protein assay
CAKI-1 = test: Growth inhibition of human CAKI1 cells after 48 hrs by SRB protein assay; settings: CAKI-1, 48 h
RXF 393 = test: Growth inhibition of human RXF393 cells after 48 hrs by SRB protein assay; settings: RXF 393, 48 h
SN12C = test: Growth inhibition of human SN12C cells after 48 hrs by SRB protein assay
UO-31 = test: Growth inhibition of human UO31 cells after 48 hrs by SRB protein assay; settings: UO-31, 48 h
PC-3 = test: Growth inhibition of human PC3 cells after 48 hrs by SRB protein assay; settings: PC-3, 48 h
DU-145 = test: Growth inhibition of human DU145 cells after 48 hrs by SRB protein assay; settings: DU-145, 48 h
MCF7 = test: Growth inhibition of human MCF7 cells after 48 hrs by SRB protein assay; settings: MCF7, 48 h
MDA-MB-231 = test: Growth inhibition of MDA-MB-231 cells after 48 hrs by SRB protein assay; settings: Homo sapiens, MDA-MB-231, 48 h
SK-MEL-5 = test: Growth inhibition of human SK-MEL-5 cells after 48 hrs by SRB protein assay; settings: SK-MEL-5, 48 h
BT-549 = test: Growth inhibition of human BT549 cells after 48 hrs by SRB protein assay; settings: BT-549, 48 h
T47D = test: Growth inhibition of human T47D cells after 48 hrs by SRB protein assay
OVCAR-5 = test: Growth inhibition of human OVCAR5 cells after 48 hrs by SRB protein assay; settings: OVCAR-5, 48 h

Work on `O=C(Cc1csc2nc(-c3ccc(Br)cc3)cn12)N/N=C/c1ccccc1` yielded a GI50 (CCRF-CEM) of 17.4 µM, a TGI (CCRF-CEM; read-out: Log TGI (converted)) of over 100 µM and a GI50 (MOLT-4) of 6.76 µM. It also gave a TGI (MOLT-4; read-out: Log TGI (converted)) of 37.2 µM, a GI50 (RPMI-8226) of 7.41 µM and a TGI (RPMI-8226; read-out: Log TGI (converted)) of over 100 µM. The GI50 (A549) was 13.5 µM, the TGI (A549; read-out: Log TGI (converted)) was 40.7 µM and the GI50 (EKVX) was 6.92 µM. It also gave a TGI (EKVX; read-out: Log TGI (converted)) of 52.5 µM, a GI50 (HOP-92) of 12.3 µM and a TGI (HOP-92; read-out: Log TGI (converted)) of 37.2 µM. It also gave a GI50 (NCI-H23) of 12.6 µM, a TGI (NCI-H23; read-out: Log TGI (converted)) of 61.7 µM and a GI50 (NCI-H322M) of 19.1 µM. The TGI (NCI-H322M; read-out: Log TGI (converted)) was 93.3 µM, the GI50 (NCI-H460) was 52.5 µM and the TGI (NCI-H460; read-out: Log TGI (converted)) was over 100 µM. For the same compound, the GI50 (NCI-H522) was 14.1 µM, the TGI (NCI-H522; read-out: Log TGI (converted)) was 60.3 µM and the GI50 (COLO 205) was 66.1 µM. The TGI (COLO 205; read-out: Log TGI (converted)) was over 100 µM, the GI50 (HCC 2998) was 13.2 µM and the TGI (HCC 2998; read-out: Log TGI (converted)) was 49 µM. The GI50 (KM12) was 26.3 µM, the TGI (KM12; read-out: Log TGI (converted)) was over 100 µM and the GI50 (SF-295) was 12 µM. For the same compound, the TGI (SF-295; read-out: Log TGI (converted)) was 37.2 µM, the GI50 (SF-539) was 16.2 µM and the TGI (SF-539; read-out: Log TGI (converted)) was 39.8 µM. The GI50 (SNB-19) was 43.7 µM, the TGI (SNB-19; read-out: Log TGI (converted)) was over 100 µM and the GI50 (SNB-75) was 31.6 µM. For the same compound, the TGI (SNB-75; read-out: Log TGI (converted)) was 89.1 µM, the GI50 (U-251) was 12.9 µM and the TGI (U-251; read-out: Log TGI (converted)) was 32.4 µM. For the same compound, the GI50 (M14) was 20.9 µM, the TGI (M14; read-out: Log TGI (converted)) was over 100 µM and the GI50 (SK-MEL-28) was over 100 µM. It also gave a TGI (SK-MEL-28; read-out: Log TGI (converted)) of over 100 µM, a GI50 (UACC-257) of 6.17 µM and a TGI (UACC-257; read-out: Log TGI (converted)) of 31.6 µM. It also gave a GI50 (UACC-62) of 11.5 µM, a TGI (UACC-62; read-out: Log TGI (converted)) of 28.2 µM and a GI50 (IGROV-1) of 11.2 µM. For the same compound, the TGI (IGROV-1; read-out: Log TGI (converted)) was 32.4 µM, the GI50 (OVCAR-8) was 2.34 µM and the TGI (OVCAR-8; read-out: Log TGI (converted)) was 20.4 µM. For the same compound, the GI50 (SK-OV-3) was 66.1 µM, the TGI (SK-OV-3; read-out: Log TGI (converted)) was over 100 µM and the GI50 [1] was 27.5 µM. The TGI ([1]; read-out: Log TGI (converted)) was over 100 µM, the GI50 (ACHN) was 10.7 µM and the TGI (ACHN; read-out: Log TGI (converted)) was 25.7 µM. It also gave a GI50 (CAKI-1) of 30.2 µM, a TGI (CAKI-1; read-out: Log TGI (converted)) of 81.3 µM and a GI50 (RXF 393) of 14.5 µM. The TGI (RXF 393; read-out: Log TGI (converted)) was 38.9 µM, the GI50 (SN12C) was 13.2 µM and the TGI (SN12C; read-out: Log TGI (converted)) was 39.8 µM. The GI50 (UO-31) was 57.5 µM, the TGI (UO-31; read-out: Log TGI (converted)) was over 100 µM and the GI50 (PC-3) was 20.4 µM. For the same compound, the TGI (PC-3; read-out: Log TGI (converted)) was over 100 µM, the GI50 (DU-145) was 14.5 µM and the TGI (DU-145; read-out: Log TGI (converted)) was 44.7 µM. The GI50 (MCF7) was 75.9 µM, the TGI (MCF7; read-out: Log TGI (converted)) was over 100 µM and the GI50 (MDA-MB-231) was 12.9 µM. For the same compound, the TGI (MDA-MB-231; read-out: Log TGI (converted)) was 57.5 µM, the GI50 (SK-MEL-5) was 5.62 µM and the TGI (SK-MEL-5; read-out: Log TGI (converted)) was 26.9 µM. For the same compound, the GI50 (BT-549) was 12.9 µM, the TGI (BT-549; read-out: Log TGI (converted)) was 49 µM and the GI50 (T47D) was 37.2 µM. For the same compound, the TGI (T47D; read-out: Log TGI (converted)) was over 100 µM, the GI50 (OVCAR-5) was 30.9 µM and the TGI (OVCAR-5; read-out: Log TGI (converted)) was over 100 µM.
